Data taken from US12077503B2, “Substituted cyclic amides and their use as herbicides” (FMC CORPORATION, priority 2015, dated 2024).

What was measured:
Format in all cases: in vivo
Kochia (Kochia scoparia) [1] = assay: Test A preemergence; details: Bassia scoparia, pre-emergence, 240 h, 0 to 100 scale where 0 is no effect and 100 is complete control, read-out: Kochia plant response rating
Procedure, shortened: (§1)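 Treatment is preemergence as a directed soil spray after planting, or postemergence at the one- to two-leaf stage, with test chemical in a non-phytotoxic solvent mixture plus surfactant. Plants stay in the greenhouse about 10 d before visual injury scoring on a 0 to 100 scale versus untreated controls.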

[2] = system: barnyardgrass (Echinochloa crus-galli); assay: Test A preemergence; details: Echinochloa crus-galli, pre-emergence, 240 h, Preemergence
Procedure, shortened: as §1

[3] = system: giant foxtail (Setaria faberii); assay: Test A preemergence; details: Setaria faberi, pre-emergence, 240 h, Preemergence
Procedure, shortened: as §1

[4] = system: pigweed (Amaranthus retroflexus); assay: Test A preemergence; details: Amaranthus retroflexus, pre-emergence, 240 h, 0 to 100 scale where 0 is no effect and 100 is complete control, read-out: Pigweed plant response rating
[5] = system: ragweed (common ragweed, Ambrosia elatior); assay: Test A preemergence; details: Ambrosia artemisiifolia, pre-emergence, 240 h, 0 to 100 scale where 0 is no effect and 100 is complete control, read-out: Ragweed plant response rating
Procedure, shortened: as §1

[6] = system: ryegrass, Italian (Italian ryegrass, Lolium multiflorum); assay: Test A preemergence; details: Lolium multiflorum, pre-emergence, 240 h, 0 to 100 scale where 0 is no effect and 100 is complete control, read-out: Ryegrass, Italian plant response rating
Procedure, shortened: as §1

[7] = system: Galium (catchweed bedstraw, Galium aparine); assay: Test A postemergence; details: Galium, post-emergence, 240 h
Procedure, shortened: as §1

Kochia (Kochia scoparia) [8] = assay: Test A postemergence; details: Bassia scoparia, post-emergence, 240 h
Procedure, shortened: as §1

[9] = system: barnyardgrass (Echinochloa crus-galli); assay: Test A postemergence; details: Echinochloa crus-galli, post-emergence, 240 h
Procedure, shortened: as §1

[10] = system: blackgrass (Alopecurus myosuroides); assay: Test A postemergence; details: Alopecurus myosuroides, post-emergence, 240 h
Procedure, shortened: as §1

corn (Zea mays) = assay: Test A postemergence; details: Zea mays, post-emergence, 240 h
Procedure, shortened: as §1

[11] = system: giant foxtail (Setaria faberii); assay: Test A postemergence; details: Setaria faberi, post-emergence, 240 h
Procedure, shortened: as §1

[12] = system: pigweed (Amaranthus retroflexus); assay: Test A postemergence; details: Amaranthus retroflexus, post-emergence, 240 h
Procedure, shortened: as §1

[13] = system: ragweed (common ragweed, Ambrosia elatior); assay: Test A postemergence; details: Ambrosia artemisiifolia, post-emergence, 240 h
Procedure, shortened: as §1

[14] = system: ryegrass, Italian (Italian ryegrass, Lolium multiflorum); assay: Test A postemergence; details: Lolium multiflorum, post-emergence, 240 h
Procedure, shortened: as §1

[15] = system: wheat (Triticum aestivum); assay: Test A postemergence; details: Triticum aestivum, post-emergence, 240 h
Procedure, shortened: as §1

[16] = system: barnyardgrass (Echinochloa crus-galli); assay: Test B flooded paddy test; details: Echinochloa crus-galli, 250 g ai/ha, Flood; 0 to 100 scale where 0 is no effect and 100 is complete control; read-out: Barnyardgrass plant response rating
Procedure, shortened: (§2)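 Percent control, visually estimated after 13–15 d in the greenhouse on a 0–100 basis, compares treated pots with untreated ones; compound was put into paddy water 3 cm above the soil when plants had two leaves.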

[17] = system: ducksalad (Heteranthera limosa); assay: Test B flooded paddy test; details: Heteranthera limosa, 250 g ai/ha, Flood; 0 to 100 scale where 0 is no effect and 100 is complete control; read-out: Ducksalad plant response rating
Procedure, shortened: as §2

rice (Oryra sativa) = assay: Test B flooded paddy test; details: Oryza sativa, 250 g ai/ha, Flood; 0 to 100 scale where 0 is no effect and 100 is complete control; read-out: Rice plant response rating
Procedure, shortened: as §2

[18] = system: sedge, umbrella (small-flower umbrella sedge, Cyperus difformis); assay: Test B flooded paddy test; details: Cyperus difformis, 250 g ai/ha, Flood; 0 to 100 scale where 0 is no effect and 100 is complete control; read-out: Sedge, Umbrella plant response rating
Procedure, shortened: as §2

[19] = 125 g ai/ha, preemergence, approx. 10 d

## COCc1ccccc1NC(=O)[C@H]1C(=O)N(C)C[C@@H]1c1cccc(C(F)(F)F)c1 (racemic) [Compound 1060]
Kochia (Kochia scoparia) [1]; 31 g ai/ha, Preemergence
  pest or weed control at 31 g/ha: 0%
Kochia (Kochia scoparia) [1]; [19]
  pest or weed control at 125 g/ha: 0%
[2]; 125 g ai/ha, visual injury rating after approximately 10 d, read-out: Barnyardgrass plant response rating (0 to 100 scale, 0 is no effect, 100 is complete control)
  pest or weed control at 125 g/ha: 100%
[2]; 31 g ai/ha, 0 to 100 scale (0 no effect, 100 complete control), read-out: Plant response rating, Barnyardgrass
  pest or weed control at 31 g/ha: 90%
[3]; 125 g ai/ha, visual injury rating after approximately 10 d, read-out: Foxtail, Giant plant response rating (0 to 100 scale, 0 is no effect, 100 is complete control)
  pest or weed control at 125 g/ha: 100%
[3]; 31 g ai/ha, 0 to 100 scale (0 no effect, 100 complete control), read-out: Plant response rating, Foxtail, Giant
  pest or weed control at 31 g/ha: 90%
[4]; 31 g ai/ha, Preemergence
  pest or weed control at 31 g/ha: 0%
[4]; [19]
  pest or weed control at 125 g/ha: 30%
[5]; 31 g ai/ha, Preemergence
  pest or weed control at 31 g/ha: 0%
[5]; [19]
  pest or weed control at 125 g/ha: 30%
[6]; 31 g ai/ha, Preemergence
  pest or weed control at 31 g/ha: 50%
[6]; [19]
  pest or weed control at 125 g/ha: 60%
[7]; 125 g ai/ha, postemergence, visual injury on 0 to 100 scale (0 no effect, 100 complete control), approx. 10 d, read-out: Galium plant response rating
  pest or weed control at 125 g/ha: 40%
[7]; Postemergence, 31 g ai/ha, visual injury after approx. 10 d, 0 to 100 scale, 0 no effect, 100 complete control, read-out: Plant response rating, Galium
  pest or weed control at 31 g/ha: 0%
Kochia (Kochia scoparia) [8]; 125 g ai/ha, postemergence, visual injury on 0 to 100 scale (0 no effect, 100 complete control), approx. 10 d, read-out: Kochia plant response rating
  pest or weed control at 125 g/ha: 0%
Kochia (Kochia scoparia) [8]; Postemergence, 31 g ai/ha, visual injury after approx. 10 d, 0 to 100 scale, 0 no effect, 100 complete control, read-out: Plant response rating, Kochia
  pest or weed control at 31 g/ha: 0%
[9]; 125 g ai/ha, postemergence, visual injury on 0 to 100 scale (0 no effect, 100 complete control), approx. 10 d, read-out: Barnyardgrass plant response rating
  pest or weed control at 125 g/ha: 100%
[9]; Postemergence, 31 g ai/ha, visual injury after approx. 10 d, 0 to 100 scale, 0 no effect, 100 complete control, read-out: Plant response rating, Barnyardgrass
  pest or weed control at 31 g/ha: 90%
[10]; 125 g ai/ha, postemergence, visual injury on 0 to 100 scale (0 no effect, 100 complete control), approx. 10 d, read-out: Blackgrass plant response rating
  pest or weed control at 125 g/ha: 60%
[10]; Postemergence, 31 g ai/ha, visual injury after approx. 10 d, 0 to 100 scale, 0 no effect, 100 complete control, read-out: Plant response rating, Blackgrass
  pest or weed control at 31 g/ha: 50%
Corn (Zea mays); 125 g ai/ha, postemergence, visual injury on 0 to 100 scale (0 no effect, 100 complete control), approx. 10 d, read-out: Corn plant response rating
  plant injury at 125 g/ha: 90%
Corn (Zea mays); Postemergence, 31 g ai/ha, visual injury after approx. 10 d, 0 to 100 scale, 0 no effect, 100 complete control
  Corn plant response rating (crop injury, 0 = no effect, 100 = complete kill) at 31 g/ha: 70%
[11]; 125 g ai/ha, postemergence, visual injury on 0 to 100 scale (0 no effect, 100 complete control), approx. 10 d, read-out: Foxtail, Giant plant response rating
  pest or weed control at 125 g/ha: 90%
[11]; Postemergence, 31 g ai/ha, visual injury after approx. 10 d, 0 to 100 scale, 0 no effect, 100 complete control, read-out: Plant response rating, Foxtail, Giant
  pest or weed control at 31 g/ha: 90%
[12]; 125 g ai/ha, postemergence, visual injury on 0 to 100 scale (0 no effect, 100 complete control), approx. 10 d, read-out: Pigweed plant response rating
  pest or weed control at 125 g/ha: 0%
[12]; Postemergence, 31 g ai/ha, visual injury after approx. 10 d, 0 to 100 scale, 0 no effect, 100 complete control, read-out: Plant response rating, Pigweed
  pest or weed control at 31 g/ha: 0%
[13]; 125 g ai/ha, postemergence, visual injury on 0 to 100 scale (0 no effect, 100 complete control), approx. 10 d, read-out: Ragweed plant response rating
  pest or weed control at 125 g/ha: 30%
[13]; Postemergence, 31 g ai/ha, visual injury after approx. 10 d, 0 to 100 scale, 0 no effect, 100 complete control, read-out: Plant response rating, Ragweed
  pest or weed control at 31 g/ha: 0%
[14]; 125 g ai/ha, postemergence, visual injury on 0 to 100 scale (0 no effect, 100 complete control), approx. 10 d, read-out: Ryegrass, Italian plant response rating
  pest or weed control at 125 g/ha: 50%
[14]; Postemergence, 31 g ai/ha, visual injury after approx. 10 d, 0 to 100 scale, 0 no effect, 100 complete control, read-out: Plant response rating, Ryegrass, Italian
  pest or weed control at 31 g/ha: 50%
[15]; 125 g ai/ha, postemergence, visual injury on 0 to 100 scale (0 no effect, 100 complete control), approx. 10 d, read-out: Wheat plant response rating
  plant injury at 125 g/ha: 70%
[15]; Postemergence, 31 g ai/ha, visual injury after approx. 10 d, 0 to 100 scale, 0 no effect, 100 complete control, read-out: Plant response rating, Wheat
  plant injury at 31 g/ha: 30%
[16]
  pest or weed control at 250 g/ha: 75%
[17]
  pest or weed control at 250 g/ha: 90%
Rice (Oryra sativa)
  pest or weed control at 250 g/ha: 20%
[18]
  pest or weed control at 250 g/ha: 0%
